≈ marks a conversion by molar mass, not a printed value. Some results are limits rather than exact numbers.

What all share (type): functional
The test system of assay [1] is Pichia kudriavzevii. Description: Antifungal activity against Candida krusei after 24 hrs by serial dilution method.
For assay [2], the system named is Cryptococcus neoformans. The assay can be described thus: Antifungal activity against Cryptococcus neoformans after 72 hrs by serial dilution method.
Assay [3] concerns Candida tropicalis. Description: Antifungal activity against Candida tropicalis after 24 hrs by serial dilution method.
For assay [4], the system named is Trichophyton rubrum. Description: Antifungal activity against Trichophyton rubrum after 7 days by serial dilution method. To be noted: 168 h.
Assay [5] has as its system Candida parapsilosis. Description: Antifungal activity against Candida parapsilosis after 24 hrs by serial dilution method. To be noted: Lodderomyces parapsilosis.
The subject of assay [6] is Aspergillus fumigatus. The assay can be described thus: Antifungal activity against Aspergillus fumigatus after 7 days by serial dilution method. As to conditions: 168 h.
Assay [7] deals with Candida albicans. Description: Antifungal activity against Candida albicans after 24 hrs by serial dilution method.

A word on the MIC80: it is an inhibitory concentration at the 80% level, which refers to growth in some studies and to a panel of isolates in others. In the case of `CCCc1ccc(CON=C2CCN(CC(O)(Cn3cncn3)c3ccc(F)cc3F)CC2)cc1` (racemic), the MIC80 in assay [1] is 64 µg/mL (≈ 132 µM); in assay [2], 16 µg/mL (≈ 33.1 µM); in assay [3] it was 64 µg/mL (≈ 132 µM); in assay [4] it was 4 µg/mL (≈ 8.27 µM); in assay [5], 64 µg/mL (≈ 132 µM); in assay [6], 64 µg/mL (≈ 132 µM). In addition, in assay [7], the MIC80 stood at 16 µg/mL (≈ 33.1 µM).
Regarding `O=[N+]([O-])c1cccc(CON=C2CCN(CC(O)(Cn3cncn3)c3ccc(F)cc3F)CC2)c1` (racemic), the MIC80 came out at 1 µg/mL (≈ 2.06 µM) in assay [1]; 0.0625 µg/mL (≈ 0.128 µM) in assay [2]; 1 µg/mL (≈ 2.06 µM) in assay [3]; 0.25 µg/mL (≈ 0.514 µM) in assay [4]; 0.0625 µg/mL (≈ 0.128 µM) in assay [5]; 1 µg/mL (≈ 2.06 µM) in assay [6]. Also, in assay [7], the MIC80 was determined as 1 µg/mL (≈ 2.06 µM).
Take `COc1cccc(CON=C2CCN(CC(O)(Cn3cncn3)c3ccc(F)cc3F)CC2)c1` (racemic): the MIC80 was 64 µg/mL (≈ 136 µM) in assay [1]; 16 µg/mL (≈ 33.9 µM) in assay [2]; 64 µg/mL (≈ 136 µM) in assay [3]; 16 µg/mL (≈ 33.9 µM) in assay [4]; 64 µg/mL (≈ 136 µM) in assay [5]; 64 µg/mL (≈ 136 µM) in assay [6]. The MIC80 in assay [7] came to 16 µg/mL (≈ 33.9 µM).
Regarding `C=Cc1ccc(CON=C2CCN(CC(O)(Cn3cncn3)c3ccc(F)cc3F)CC2)cc1` (racemic), the MIC80 in assay [1] was 64 µg/mL (≈ 137 µM); in assay [2], 16 µg/mL (≈ 34.2 µM); in assay [3] it was 64 µg/mL (≈ 137 µM); in assay [4], 16 µg/mL (≈ 34.2 µM); in assay [5], 64 µg/mL (≈ 137 µM); in assay [6], 64 µg/mL (≈ 137 µM). In addition, in assay [7], the MIC80 is 16 µg/mL (≈ 34.2 µM).
Regarding `OC(CN1CCC(=NOCc2cccc(Cl)c2)CC1)(Cn1cncn1)c1ccc(F)cc1F` (racemic), the MIC80 in assay [1] stood at 0.25 µg/mL (≈ 0.525 µM); in assay [2], 0.001 µg/mL (≈ 0.0021 µM); in assay [3], 0.0625 µg/mL (≈ 0.131 µM); in assay [4], 0.016 µg/mL (≈ 0.0336 µM); in assay [5] it was 0.0625 µg/mL (≈ 0.131 µM); in assay [6] it was 1 µg/mL (≈ 2.1 µM). This compound also yielded an MIC80 in assay [7] of 0.016 µg/mL (≈ 0.0336 µM).
`Cc1ccc(CON=C2CCN(CC(O)(Cn3cncn3)c3ccc(F)cc3F)CC2)cc1` (racemic): the MIC80 in assay [1] was 16 µg/mL (≈ 35.1 µM); in assay [2], 16 µg/mL (≈ 35.1 µM); in assay [3], 64 µg/mL (≈ 141 µM); in assay [4], 16 µg/mL (≈ 35.1 µM); in assay [5], 64 µg/mL (≈ 141 µM); in assay [6], 64 µg/mL (≈ 141 µM). In assay [7], this compound had an MIC80 of 64 µg/mL (≈ 141 µM).
As to `COc1ccc(CON=C2CCN(CC(O)(Cn3cncn3)c3ccc(F)cc3F)CC2)cc1` (racemic), the MIC80 amounted to 4 µg/mL (≈ 8.48 µM) in assay [1]; 4 µg/mL (≈ 8.48 µM) in assay [2]; 4 µg/mL (≈ 8.48 µM) in assay [3]; 4 µg/mL (≈ 8.48 µM) in assay [4]; 4 µg/mL (≈ 8.48 µM) in assay [5]; 64 µg/mL (≈ 136 µM) in assay [6]. In addition, the MIC80 in assay [7] was 1 µg/mL (≈ 2.12 µM).
For `N#Cc1ccc(CON=C2CCN(CC(O)(Cn3cncn3)c3ccc(F)cc3F)CC2)cc1` (racemic), the MIC80 in assay [1] worked out at 0.25 µg/mL (≈ 0.536 µM); in assay [2], 0.016 µg/mL (≈ 0.0343 µM); in assay [3], 0.0625 µg/mL (≈ 0.134 µM); in assay [4] it was 0.0625 µg/mL (≈ 0.134 µM); in assay [5] it was 0.0625 µg/mL (≈ 0.134 µM); in assay [6], 1 µg/mL (≈ 2.14 µM). This compound gave an MIC80 in assay [7] of 0.0625 µg/mL (≈ 0.134 µM).
In the case of `OC(CN1CCC(=NOCc2ccc(C(F)(F)F)cc2)CC1)(Cn1cncn1)c1ccc(F)cc1F` (racemic), the MIC80 in assay [1] is 64 µg/mL (≈ 126 µM); in assay [2], 16 µg/mL (≈ 31.4 µM); in assay [3], 64 µg/mL (≈ 126 µM); in assay [4], 16 µg/mL (≈ 31.4 µM); in assay [5] it was 64 µg/mL (≈ 126 µM); in assay [6], 64 µg/mL (≈ 126 µM). The MIC80 in assay [7] was 16 µg/mL (≈ 31.4 µM).
On to `OC(CN1CCC(=NOCc2ccccc2)CC1)(Cn1cncn1)c1ccc(F)cc1F` (racemic), for which the MIC80 worked out at 0.0625 µg/mL (≈ 0.142 µM) in assay [1]; 0.016 µg/mL (≈ 0.0362 µM) in assay [2]; 0.001 µg/mL (≈ 0.00227 µM) in assay [3]; 0.0625 µg/mL (≈ 0.142 µM) in assay [4]; 0.004 µg/mL (≈ 0.00906 µM) in assay [5]; 1 µg/mL (≈ 2.27 µM) in assay [6]. The same compound returned an MIC80 in assay [7] of 0.004 µg/mL (≈ 0.00906 µM).
Consider `OC(CN1CCC(=NOCc2cccc(F)c2)CC1)(Cn1cncn1)c1ccc(F)cc1F` (racemic), for which the MIC80 in assay [1] is 0.25 µg/mL (≈ 0.544 µM); in assay [2], 0.016 µg/mL (≈ 0.0348 µM); in assay [3], 0.016 µg/mL (≈ 0.0348 µM); in assay [4], 0.0625 µg/mL (≈ 0.136 µM); in assay [5] it was 0.016 µg/mL (≈ 0.0348 µM); in assay [6] it was 0.25 µg/mL (≈ 0.544 µM). Also, in assay [7], the MIC80 was 0.016 µg/mL (≈ 0.0348 µM).
For the compound `OC(CN1CCC(=NOCc2ccc(Br)cc2)CC1)(Cn1cncn1)c1ccc(F)cc1F` (racemic), the MIC80 in assay [1] was 0.25 µg/mL (≈ 0.48 µM); in assay [2], 0.016 µg/mL (≈ 0.0307 µM); in assay [3] it was 0.004 µg/mL (≈ 0.00769 µM); in assay [4], 0.016 µg/mL (≈ 0.0307 µM); in assay [5] it was 0.016 µg/mL (≈ 0.0307 µM); in assay [6] it was 1 µg/mL (≈ 1.92 µM). Besides, in assay [7], the MIC80 was found to be 0.016 µg/mL (≈ 0.0307 µM).
For the compound `Cc1cccc(CON=C2CCN(CC(O)(Cn3cncn3)c3ccc(F)cc3F)CC2)c1` (racemic), the MIC80 was 64 µg/mL (≈ 141 µM) in assay [1]; 16 µg/mL (≈ 35.1 µM) in assay [2]; 64 µg/mL (≈ 141 µM) in assay [3]; 16 µg/mL (≈ 35.1 µM) in assay [4]; 64 µg/mL (≈ 141 µM) in assay [5]; 64 µg/mL (≈ 141 µM) in assay [6]. This compound gave an MIC80 in assay [7] of 16 µg/mL (≈ 35.1 µM).
As for `OC(CN1CCC(=NOCc2cccc(Br)c2)CC1)(Cn1cncn1)c1ccc(F)cc1F` (racemic), the MIC80 came out at 0.25 µg/mL (≈ 0.48 µM) in assay [1]; 0.016 µg/mL (≈ 0.0307 µM) in assay [2]; 0.004 µg/mL (≈ 0.00769 µM) in assay [3]; 0.0625 µg/mL (≈ 0.12 µM) in assay [4]; 0.016 µg/mL (≈ 0.0307 µM) in assay [5]; 1 µg/mL (≈ 1.92 µM) in assay [6]. Further, in assay [7], the MIC80 was determined as 0.016 µg/mL (≈ 0.0307 µM).
Consider `OC(CN1CCC(=NOCc2ccccc2Cl)CC1)(Cn1cncn1)c1ccc(F)cc1F` (racemic), for which the MIC80 in assay [1] was 0.25 µg/mL (≈ 0.525 µM); in assay [2], 0.016 µg/mL (≈ 0.0336 µM); in assay [3], 0.016 µg/mL (≈ 0.0336 µM); in assay [4] it was 0.0625 µg/mL (≈ 0.131 µM); in assay [5] it was 0.004 µg/mL (≈ 0.0084 µM); in assay [6], 1 µg/mL (≈ 2.1 µM). In assay [7], the MIC80 stood at 0.016 µg/mL (≈ 0.0336 µM).
On to `OC(Cn1cncn1)(Cn1cncn1)c1ccc(F)cc1F` [FLUCONAZOLE], for which the MIC80 in assay [1] is 1 µg/mL (≈ 3.27 µM); in assay [2], 0.0625 µg/mL (≈ 0.204 µM); in assay [3], 1 µg/mL (≈ 3.27 µM); in assay [4], 1 µg/mL (≈ 3.27 µM); in assay [5] it was 0.25 µg/mL (≈ 0.816 µM); in assay [6] it was more than 64 µg/mL. The compound also registered an MIC80 in assay [7] of 0.25 µg/mL (≈ 0.816 µM).
Take `OC(CN1CCC(=NOCc2ccc(Cl)cc2Cl)CC1)(Cn1cncn1)c1ccc(F)cc1F` (racemic): the MIC80 in assay [1] was found to be 0.25 µg/mL (≈ 0.49 µM); in assay [2], 0.016 µg/mL (≈ 0.0313 µM); in assay [3] it was 0.016 µg/mL (≈ 0.0313 µM); in assay [4], 0.0625 µg/mL (≈ 0.122 µM); in assay [5], 0.016 µg/mL (≈ 0.0313 µM); in assay [6] it was 4 µg/mL (≈ 7.84 µM). The MIC80 in assay [7] was 0.016 µg/mL (≈ 0.0313 µM).
For the compound `CCc1ccc(CON=C2CCN(CC(O)(Cn3cncn3)c3ccc(F)cc3F)CC2)cc1` (racemic), the MIC80 in assay [1] came to 64 µg/mL (≈ 136 µM); in assay [2], 16 µg/mL (≈ 34.1 µM); in assay [3], 64 µg/mL (≈ 136 µM); in assay [4] it was 16 µg/mL (≈ 34.1 µM); in assay [5], 64 µg/mL (≈ 136 µM); in assay [6], 64 µg/mL (≈ 136 µM). In assay [7], the MIC80 is 16 µg/mL (≈ 34.1 µM).
`CCC(C)n1ncn(-c2ccc(N3CCN(c4ccc(OCC5COC(Cn6cncn6)(c6ccc(Cl)cc6Cl)O5)cc4)CC3)cc2)c1=O` (stereo not given) [ITRACONAZOLE]: the MIC80 turned out to be 0.25 µg/mL (≈ 0.354 µM) in assay [1]; 0.004 µg/mL (≈ 0.00567 µM) in assay [2]; 0.0625 µg/mL (≈ 0.0886 µM) in assay [3]; 0.004 µg/mL (≈ 0.00567 µM) in assay [4]; 0.0625 µg/mL (≈ 0.0886 µM) in assay [5]; 1 µg/mL (≈ 1.42 µM) in assay [6]. In assay [7], this compound returned an MIC80 of 0.016 µg/mL (≈ 0.0227 µM).
`ON=C1CCN(CC(O)(Cn2cncn2)c2ccc(F)cc2F)CC1` (stereo not given): the MIC80 was 4 µg/mL (≈ 11.4 µM) in assay [1]; 1 µg/mL (≈ 2.85 µM) in assay [2]; 1 µg/mL (≈ 2.85 µM) in assay [3]; 16 µg/mL (≈ 45.5 µM) in assay [4]; 16 µg/mL (≈ 45.5 µM) in assay [5]; more than 64 µg/mL in assay [6]. Further, the MIC80 in assay [7] stood at 1 µg/mL (≈ 2.85 µM).

The values are drawn from ChEMBL document CHEMBL1157917, “Structure-based rational design, synthesis and antifungal activity of oxime-containing azole derivatives” (2010).
